# What was measured:
# Assay in all cases: radiometric in vitro kinase assay, autoradiography
# Format in all cases: biochemical
# His-Raf12 = target: T1, His-Raf12 (Arabidopsis thaliana, UniProt F4JMR7); settings: autophosphorylation and histone phosphorylation; 200 µM ATP plus [γ-32P]ATP, labelled compound; 10 mM MgCl2; pH 7.5; room temperature
# T1 construct: gene At4g23050; 6 x His tag, pET30a(+), expressed in E. coli BL21 (DE3); insert from cDNA of ABA-treated Col-0 leaf epidermis
# T1 sequence (F4JMR7 1-735): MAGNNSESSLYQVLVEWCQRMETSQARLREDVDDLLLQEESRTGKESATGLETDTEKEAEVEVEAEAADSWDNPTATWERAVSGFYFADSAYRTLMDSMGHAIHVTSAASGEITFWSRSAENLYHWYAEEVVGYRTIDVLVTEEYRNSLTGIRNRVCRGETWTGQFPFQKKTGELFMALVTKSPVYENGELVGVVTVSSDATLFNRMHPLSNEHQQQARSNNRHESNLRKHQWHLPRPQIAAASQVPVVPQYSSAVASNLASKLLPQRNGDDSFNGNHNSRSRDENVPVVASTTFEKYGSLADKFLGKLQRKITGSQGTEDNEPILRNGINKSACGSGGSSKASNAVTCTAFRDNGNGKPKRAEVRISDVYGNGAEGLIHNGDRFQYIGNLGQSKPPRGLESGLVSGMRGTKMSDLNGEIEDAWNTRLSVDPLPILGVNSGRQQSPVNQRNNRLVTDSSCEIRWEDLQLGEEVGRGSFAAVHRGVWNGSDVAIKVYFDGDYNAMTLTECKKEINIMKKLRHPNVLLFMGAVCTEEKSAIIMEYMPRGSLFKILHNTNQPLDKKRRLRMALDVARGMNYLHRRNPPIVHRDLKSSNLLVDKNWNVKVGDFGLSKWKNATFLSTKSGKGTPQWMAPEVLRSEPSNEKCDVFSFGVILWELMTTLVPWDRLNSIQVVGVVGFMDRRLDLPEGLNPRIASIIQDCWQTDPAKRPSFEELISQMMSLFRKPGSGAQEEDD
# His-M3K∂6 = target: T2, His-M3K∂6 (Arabidopsis thaliana, UniProt Q9C9U5); settings: autophosphorylation and histone phosphorylation; 200 µM ATP plus [γ-32P]ATP, labelled compound; 10 mM MgCl2; pH 7.5; room temperature
# T2 construct: gene SIS8; 6 x His tag, expressed in E. coli BL21 (DE3); plasmid from Takahashi et al. 2020
# T2 sequence (Q9C9U5 1-1030): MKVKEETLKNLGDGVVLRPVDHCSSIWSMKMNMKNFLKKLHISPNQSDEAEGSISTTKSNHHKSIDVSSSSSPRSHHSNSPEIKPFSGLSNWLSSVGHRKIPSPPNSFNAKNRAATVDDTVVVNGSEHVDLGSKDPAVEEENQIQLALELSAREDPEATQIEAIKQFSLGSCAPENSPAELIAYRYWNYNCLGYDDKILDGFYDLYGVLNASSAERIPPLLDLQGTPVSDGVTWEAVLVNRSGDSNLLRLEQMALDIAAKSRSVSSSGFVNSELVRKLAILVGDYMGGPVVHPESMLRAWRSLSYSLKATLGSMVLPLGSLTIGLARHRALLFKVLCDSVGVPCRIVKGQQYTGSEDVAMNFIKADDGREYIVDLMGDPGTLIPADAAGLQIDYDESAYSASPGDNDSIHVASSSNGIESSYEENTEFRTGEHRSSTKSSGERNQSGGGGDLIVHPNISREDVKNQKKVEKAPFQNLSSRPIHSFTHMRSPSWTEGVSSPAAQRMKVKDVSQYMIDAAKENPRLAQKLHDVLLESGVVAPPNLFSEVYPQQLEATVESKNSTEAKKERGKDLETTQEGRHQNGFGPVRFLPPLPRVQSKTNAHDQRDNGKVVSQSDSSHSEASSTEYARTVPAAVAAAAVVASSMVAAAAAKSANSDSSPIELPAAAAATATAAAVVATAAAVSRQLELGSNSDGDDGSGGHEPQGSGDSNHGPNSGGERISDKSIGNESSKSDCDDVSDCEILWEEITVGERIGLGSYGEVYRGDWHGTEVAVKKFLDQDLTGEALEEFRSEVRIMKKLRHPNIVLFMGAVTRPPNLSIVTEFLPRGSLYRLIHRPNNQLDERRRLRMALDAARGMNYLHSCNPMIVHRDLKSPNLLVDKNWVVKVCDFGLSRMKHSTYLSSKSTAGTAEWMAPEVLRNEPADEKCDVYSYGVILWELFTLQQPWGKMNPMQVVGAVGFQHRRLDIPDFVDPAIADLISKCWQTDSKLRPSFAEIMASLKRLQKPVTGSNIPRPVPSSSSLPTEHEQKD
# His-OST1 = target: T3, His-OST1 (Arabidopsis thaliana, UniProt Q940H6); settings: 200 µM ATP plus [γ-32P]ATP, 10 mM MgCl2, pH 7.5, room temperature
# T3 construct: gene SRK2E; 6 x His tag, expressed in E. coli BL21 (DE3); plasmid from Takahashi et al. 2020
# T3 sequence (Q940H6 1-362): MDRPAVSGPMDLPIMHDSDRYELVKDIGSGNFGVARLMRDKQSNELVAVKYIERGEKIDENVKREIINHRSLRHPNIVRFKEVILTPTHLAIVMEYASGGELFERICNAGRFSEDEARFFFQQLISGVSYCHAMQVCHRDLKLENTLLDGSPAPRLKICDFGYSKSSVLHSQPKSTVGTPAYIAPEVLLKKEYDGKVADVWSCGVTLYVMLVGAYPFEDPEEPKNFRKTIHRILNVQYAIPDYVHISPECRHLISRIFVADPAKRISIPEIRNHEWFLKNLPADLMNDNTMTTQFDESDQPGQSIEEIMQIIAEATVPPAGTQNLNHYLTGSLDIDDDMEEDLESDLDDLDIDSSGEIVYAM
Compound,"radiometric in vitro kinase assay, autoradiography (His-Raf12)","radiometric in vitro kinase assay, autoradiography (His-M3K∂6)","radiometric in vitro kinase assay, autoradiography (His-OST1; autophosphorylation and histone phosphorylation, labelled compound)","radiometric in vitro kinase assay, autoradiography (His-OST1; 100 µM K252a, 20 min preincubation, histone substrate)"
Nc1ncnc2c1ncn2[C@@H]1O[C@H](COP(=O)(O)OP(=O)(O)OP(=O)(O)O)[C@@H](O)[C@H]1O [ATP],"the kinase activity of Raf12, a B2 clade Raf-like kinase, was not inhibited by PP242",we conducted protein phosphorylation assays using Raf-like kinases in both of these clades,His-OST1 autophosphorylated and phosphorylated histone proteins as a substrate,
COC(=O)[C@@]1(O)C[C@H]2O[C@]1(C)n1c3ccccc3c3c4c(c5c6ccccc6n2c5c31)C(=O)NC4 [K252a],,,,"Kinase activity of His-OST1 was partially decreased by K252a, a potent kinase inhibitor"

# Reference: PMC12290280 (Plant and Cell Physiology, 2025)
